Reference: article PMC12586182 (Frontiers in Oncology, 2025)
Like-named read-outs stand apart in the source and are kept apart here.

Assays:
BTK = target: T1, BTK (Homo sapiens, UniProt Q06187); test: Kinase enzyme activity assay (mobility shift assay, Carna); format: biochemical; conditions: for Percentage inhibition of kinase enzyme activity: BTK, 1 µmol/L of BTK inhibitor
T1 construct: purchased Carna Biosciences, Inc

FES = target: T2, FES (Homo sapiens, UniProt P07332); test: Kinase panel profiling at 1 µmol/L (mobility shift assay, Carna); format: biochemical; conditions: 1 µmol/L of BTK inhibitor
T2 construct: purchased Carna Biosciences

LTK = target: T3, LTK (Homo sapiens, UniProt P29376); test: as above; format: biochemical; conditions: 1 µmol/L of BTK inhibitor
T3 construct: purchased Carna Biosciences

MER = target: T4, MER (Homo sapiens, UniProt Q12866); test: as above; format: biochemical; conditions: 1 µmol/L of BTK inhibitor
T4 construct: purchased Carna Biosciences
T4 sequence (Q12866 21-999): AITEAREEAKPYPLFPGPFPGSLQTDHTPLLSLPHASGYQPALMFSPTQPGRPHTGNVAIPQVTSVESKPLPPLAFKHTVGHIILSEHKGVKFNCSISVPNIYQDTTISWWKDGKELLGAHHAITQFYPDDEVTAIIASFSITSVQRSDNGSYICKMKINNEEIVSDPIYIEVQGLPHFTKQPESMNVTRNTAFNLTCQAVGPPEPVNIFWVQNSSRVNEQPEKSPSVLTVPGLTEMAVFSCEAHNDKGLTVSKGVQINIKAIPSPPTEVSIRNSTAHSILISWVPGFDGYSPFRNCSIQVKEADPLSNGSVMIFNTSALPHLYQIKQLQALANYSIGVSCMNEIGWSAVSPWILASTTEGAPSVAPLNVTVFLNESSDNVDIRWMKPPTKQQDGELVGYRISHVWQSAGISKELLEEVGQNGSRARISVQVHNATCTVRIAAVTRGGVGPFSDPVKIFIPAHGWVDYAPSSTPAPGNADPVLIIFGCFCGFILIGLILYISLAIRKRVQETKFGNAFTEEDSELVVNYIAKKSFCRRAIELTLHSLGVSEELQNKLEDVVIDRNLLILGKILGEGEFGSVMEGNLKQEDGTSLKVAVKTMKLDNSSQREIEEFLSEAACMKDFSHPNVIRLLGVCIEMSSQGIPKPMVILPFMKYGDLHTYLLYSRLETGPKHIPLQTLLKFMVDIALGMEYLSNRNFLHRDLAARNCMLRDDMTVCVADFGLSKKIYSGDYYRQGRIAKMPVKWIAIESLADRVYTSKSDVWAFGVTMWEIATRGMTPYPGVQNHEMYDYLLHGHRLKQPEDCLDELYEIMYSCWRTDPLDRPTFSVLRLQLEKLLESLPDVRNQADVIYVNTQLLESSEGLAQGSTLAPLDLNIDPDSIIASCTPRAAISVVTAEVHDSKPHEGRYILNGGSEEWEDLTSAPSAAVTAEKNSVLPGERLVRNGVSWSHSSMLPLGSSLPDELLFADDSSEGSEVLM

SRC = target: T5, SRC (Homo sapiens, UniProt P12931); test: as above; format: biochemical; conditions: 1 µmol/L of BTK inhibitor
T5 construct: purchased Carna Biosciences

CK1γ1 = target: T6, CK1γ1 (Homo sapiens, UniProt Q9HCP0); test: as above; format: biochemical; conditions: 1 µmol/L of BTK inhibitor
T6 construct: purchased Carna Biosciences

PKACα = target: T7, PKACα (Homo sapiens, UniProt P17612); test: as above; format: biochemical; conditions: 1 µmol/L of BTK inhibitor
T7 construct: purchased Carna Biosciences

PKCδ = target: T8, PKCδ (Homo sapiens, UniProt Q05655); test: as above; format: biochemical; conditions: 1 µmol/L of BTK inhibitor
T8 construct: purchased Carna Biosciences

PLK3 = target: T9, PLK3 (Homo sapiens, UniProt Q9H4B4); test: as above; format: biochemical; conditions: 1 µmol/L of BTK inhibitor
T9 construct: purchased Carna Biosciences

SPHK1 = target: T10, SPHK1 (Homo sapiens, UniProt Q9NYA1); test: as above; format: biochemical; conditions: 1 µmol/L of BTK inhibitor
T10 construct: purchased Carna Biosciences

FGFR1 = FGFR1 (Homo sapiens, UniProt P11362); test: Kinase enzyme activity assay (mobility shift assay, Carna); conditions: for Percentage inhibition of kinase enzyme activity: FGFR1, 1 µmol/L of BTK inhibitor
YES = YES (Homo sapiens, UniProt P07947); test: as above; conditions: 1 µmol/L of BTK inhibitor
BMX = target: T11, BMX (Homo sapiens, UniProt P51813); test: Kinase panel profiling at 1 µmol/L (mobility shift assay, Carna); format: biochemical; conditions: 1 µmol/L of BTK inhibitor
T11 construct: purchased Carna Biosciences

AN3-CA = test: Cell viability assay (ATPlite); format: cell-based, human; conditions: AN3-CA cell line, 72 hours incubation
Protocol: (§1) Intracellular ATP content was used as an indirect readout of cell number using the ATPlite 1Step bioluminescence assay (Revvity, Groningen, the Netherlands). Cells were seeded in 384-well plates at an optimized density to ensure unrestricted growth and maximal signal at the end of the experiment. After 24 hours of incubation, the starting cell number was determined by adding ATPlite to each well of a control plate and recording luminescence on an Envision multimode reader (Revvity, Waltham, MA, USA) ([4]). Compounds were diluted in DMSO in √10-fold steps from 10 mmol/L stocks to obtain 9-point dilution series. After further 31.6-fold dilution in 20 mmol/L HEPES (pH 7.4), the dilution series were added in duplicate to the cells in the 384-well plates to determine the effect of the compounds on cell viability. Vehicle-treated controls were included to determine maximal cell proliferation. The final DMSO concentration was 0.4% (v/v) in all wells. After incubation for an additional 72 hours, the ATP content was measured in each well using ATPlite. The luminescent signal in inhibitor-treated wells was normalized to vehicle-treated control wells to determine the percentage viability at each concentration. Cell doublings were determined by relating the cell number of vehicle-treated controls to the starting cell number for each cell line. The viability assay of a cell line was repeated when the cell doubling deviated > 2-fold from the historic doubling as determined by multiple independent experiments. The quality of the complete assay was determined by a parallel test with doxorubicin on two cell lines. IC50 values were calculated by fitting a four-parameter logistic model to the percentage viability values using IDBS XLfit5 (IDBS, Guildford, United Kingdom). All curves were visually inspected and submitted to an F-test as implemented in IDBS XLfit5. Curves with an F-value above 1.5 were invalidated and IC50 values were maximized at the highest concentration.

RT-4 = test: Cell viability assay (ATPlite); format: cell-based, human; conditions: RT-4 cell line, 72 hours incubation
Protocol: as §1

MEK2 = target: T12, MEK2 (Homo sapiens, UniProt P36507); test: Kinase enzyme activity assay (ELISA, in-house); format: biochemical
T12 construct: purchased Carna Biosciences, Inc. 07-42

B-RAF = B-RAF (Homo sapiens, UniProt P15056); test: Kinase enzyme activity assay at 1 mmol/L ATP (Carna)
Protocol: Inhibition of MLK1 and B-RAF at K M,ATP was determined in a radiometric assay using ^32P-labeled ATP at Eurofins Cerep SA (Celle-Lévescault, France).

T3 sequence (P29376 17-864): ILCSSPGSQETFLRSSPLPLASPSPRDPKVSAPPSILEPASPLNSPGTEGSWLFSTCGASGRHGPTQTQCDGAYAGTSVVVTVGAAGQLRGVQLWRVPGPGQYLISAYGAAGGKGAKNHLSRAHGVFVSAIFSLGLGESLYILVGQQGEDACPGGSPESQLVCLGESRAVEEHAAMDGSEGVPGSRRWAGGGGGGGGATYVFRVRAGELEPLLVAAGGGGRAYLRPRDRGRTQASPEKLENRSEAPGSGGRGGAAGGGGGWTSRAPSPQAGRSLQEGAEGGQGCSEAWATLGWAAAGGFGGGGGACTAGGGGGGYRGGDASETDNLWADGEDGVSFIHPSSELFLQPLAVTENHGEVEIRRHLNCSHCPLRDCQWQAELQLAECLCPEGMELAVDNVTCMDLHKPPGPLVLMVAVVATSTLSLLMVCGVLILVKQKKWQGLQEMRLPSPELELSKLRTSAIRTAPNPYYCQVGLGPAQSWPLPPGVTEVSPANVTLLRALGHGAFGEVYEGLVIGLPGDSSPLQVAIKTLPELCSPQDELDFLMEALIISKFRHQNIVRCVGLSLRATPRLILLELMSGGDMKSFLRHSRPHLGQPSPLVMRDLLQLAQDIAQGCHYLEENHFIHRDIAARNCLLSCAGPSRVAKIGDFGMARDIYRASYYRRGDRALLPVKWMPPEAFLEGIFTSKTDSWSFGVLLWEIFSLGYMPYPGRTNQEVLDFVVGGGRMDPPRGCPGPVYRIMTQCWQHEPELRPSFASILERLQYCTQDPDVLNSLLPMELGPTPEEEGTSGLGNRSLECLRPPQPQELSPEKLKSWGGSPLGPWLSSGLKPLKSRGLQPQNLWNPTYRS
T10 sequence (Q9NYA1 whole entry): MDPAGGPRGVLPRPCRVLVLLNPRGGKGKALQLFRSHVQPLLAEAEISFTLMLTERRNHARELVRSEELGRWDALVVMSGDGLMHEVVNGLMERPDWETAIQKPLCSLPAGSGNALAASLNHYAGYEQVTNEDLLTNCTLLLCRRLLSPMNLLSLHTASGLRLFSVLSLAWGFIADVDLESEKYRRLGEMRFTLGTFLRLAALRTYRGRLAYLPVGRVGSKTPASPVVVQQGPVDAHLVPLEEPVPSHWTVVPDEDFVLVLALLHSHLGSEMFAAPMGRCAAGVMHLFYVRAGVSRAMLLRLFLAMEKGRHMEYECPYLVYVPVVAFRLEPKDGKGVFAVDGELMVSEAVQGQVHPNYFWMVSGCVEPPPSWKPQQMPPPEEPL
T9 sequence (Q9H4B4 whole entry): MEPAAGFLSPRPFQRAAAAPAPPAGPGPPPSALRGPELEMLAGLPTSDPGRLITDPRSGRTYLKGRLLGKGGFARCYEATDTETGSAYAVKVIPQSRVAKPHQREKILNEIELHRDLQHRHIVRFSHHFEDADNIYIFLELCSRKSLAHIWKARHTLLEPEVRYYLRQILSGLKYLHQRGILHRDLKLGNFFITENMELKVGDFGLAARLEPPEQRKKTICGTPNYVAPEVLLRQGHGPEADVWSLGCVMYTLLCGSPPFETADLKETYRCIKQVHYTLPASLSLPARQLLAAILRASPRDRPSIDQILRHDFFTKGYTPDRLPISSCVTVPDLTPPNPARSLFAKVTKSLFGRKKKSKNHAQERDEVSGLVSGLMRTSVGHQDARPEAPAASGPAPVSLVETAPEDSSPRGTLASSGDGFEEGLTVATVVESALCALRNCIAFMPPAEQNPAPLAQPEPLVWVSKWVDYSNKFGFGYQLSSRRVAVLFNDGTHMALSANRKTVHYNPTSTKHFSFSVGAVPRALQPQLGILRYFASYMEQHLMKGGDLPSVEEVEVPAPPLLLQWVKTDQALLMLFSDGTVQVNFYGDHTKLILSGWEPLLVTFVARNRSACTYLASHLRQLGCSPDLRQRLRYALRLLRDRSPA
T1 sequence (Q06187 whole entry): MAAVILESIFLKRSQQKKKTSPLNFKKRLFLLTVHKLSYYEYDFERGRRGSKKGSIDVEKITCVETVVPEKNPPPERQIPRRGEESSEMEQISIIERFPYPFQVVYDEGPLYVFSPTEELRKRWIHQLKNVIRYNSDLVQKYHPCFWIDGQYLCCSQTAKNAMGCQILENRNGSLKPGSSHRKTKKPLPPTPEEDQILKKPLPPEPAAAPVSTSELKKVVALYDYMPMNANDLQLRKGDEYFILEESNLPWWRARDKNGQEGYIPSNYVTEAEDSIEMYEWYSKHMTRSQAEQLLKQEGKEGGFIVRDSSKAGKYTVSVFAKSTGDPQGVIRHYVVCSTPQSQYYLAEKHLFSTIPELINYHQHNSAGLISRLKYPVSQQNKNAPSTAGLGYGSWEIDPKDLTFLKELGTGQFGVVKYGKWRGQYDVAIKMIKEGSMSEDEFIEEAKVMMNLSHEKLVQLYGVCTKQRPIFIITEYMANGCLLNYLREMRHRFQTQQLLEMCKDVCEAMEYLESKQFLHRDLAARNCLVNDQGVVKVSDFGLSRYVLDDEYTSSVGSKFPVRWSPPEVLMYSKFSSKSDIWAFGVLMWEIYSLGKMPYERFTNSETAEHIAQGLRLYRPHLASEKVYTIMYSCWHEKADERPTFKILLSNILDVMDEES
T6 sequence (Q9HCP0 whole entry): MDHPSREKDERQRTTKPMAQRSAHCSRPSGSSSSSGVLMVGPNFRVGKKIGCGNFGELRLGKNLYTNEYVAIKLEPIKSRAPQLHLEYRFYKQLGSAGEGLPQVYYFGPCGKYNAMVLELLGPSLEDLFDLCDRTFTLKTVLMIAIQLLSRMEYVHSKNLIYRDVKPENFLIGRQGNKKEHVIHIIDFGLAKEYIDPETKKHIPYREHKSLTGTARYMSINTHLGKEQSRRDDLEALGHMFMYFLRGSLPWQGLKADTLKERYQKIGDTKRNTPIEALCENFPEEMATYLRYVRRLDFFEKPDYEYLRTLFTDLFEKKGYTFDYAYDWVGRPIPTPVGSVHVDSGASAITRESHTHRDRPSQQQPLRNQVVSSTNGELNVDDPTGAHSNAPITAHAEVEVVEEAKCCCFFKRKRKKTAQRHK
FGFR1, sequence (P11362 22-822): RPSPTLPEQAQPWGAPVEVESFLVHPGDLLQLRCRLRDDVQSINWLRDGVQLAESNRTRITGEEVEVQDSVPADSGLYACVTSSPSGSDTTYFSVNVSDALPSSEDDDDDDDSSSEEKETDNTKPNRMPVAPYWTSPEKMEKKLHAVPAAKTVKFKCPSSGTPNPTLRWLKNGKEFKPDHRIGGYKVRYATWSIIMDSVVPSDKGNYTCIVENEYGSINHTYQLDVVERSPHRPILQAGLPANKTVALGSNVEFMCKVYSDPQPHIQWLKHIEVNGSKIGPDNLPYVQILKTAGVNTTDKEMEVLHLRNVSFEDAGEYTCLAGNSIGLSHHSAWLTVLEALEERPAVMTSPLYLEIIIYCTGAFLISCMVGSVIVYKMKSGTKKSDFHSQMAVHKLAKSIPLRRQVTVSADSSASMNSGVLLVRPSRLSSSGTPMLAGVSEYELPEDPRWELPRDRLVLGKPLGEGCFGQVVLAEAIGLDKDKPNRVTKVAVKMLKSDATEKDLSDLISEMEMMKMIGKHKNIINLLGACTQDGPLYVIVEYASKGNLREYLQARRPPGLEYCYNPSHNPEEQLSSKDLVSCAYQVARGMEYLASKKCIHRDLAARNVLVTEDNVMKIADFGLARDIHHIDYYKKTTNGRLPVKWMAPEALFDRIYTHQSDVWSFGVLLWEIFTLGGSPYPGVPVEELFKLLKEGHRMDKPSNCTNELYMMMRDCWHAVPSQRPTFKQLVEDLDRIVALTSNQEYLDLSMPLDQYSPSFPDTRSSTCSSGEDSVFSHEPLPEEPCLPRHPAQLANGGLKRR
T8 sequence (Q05655 whole entry): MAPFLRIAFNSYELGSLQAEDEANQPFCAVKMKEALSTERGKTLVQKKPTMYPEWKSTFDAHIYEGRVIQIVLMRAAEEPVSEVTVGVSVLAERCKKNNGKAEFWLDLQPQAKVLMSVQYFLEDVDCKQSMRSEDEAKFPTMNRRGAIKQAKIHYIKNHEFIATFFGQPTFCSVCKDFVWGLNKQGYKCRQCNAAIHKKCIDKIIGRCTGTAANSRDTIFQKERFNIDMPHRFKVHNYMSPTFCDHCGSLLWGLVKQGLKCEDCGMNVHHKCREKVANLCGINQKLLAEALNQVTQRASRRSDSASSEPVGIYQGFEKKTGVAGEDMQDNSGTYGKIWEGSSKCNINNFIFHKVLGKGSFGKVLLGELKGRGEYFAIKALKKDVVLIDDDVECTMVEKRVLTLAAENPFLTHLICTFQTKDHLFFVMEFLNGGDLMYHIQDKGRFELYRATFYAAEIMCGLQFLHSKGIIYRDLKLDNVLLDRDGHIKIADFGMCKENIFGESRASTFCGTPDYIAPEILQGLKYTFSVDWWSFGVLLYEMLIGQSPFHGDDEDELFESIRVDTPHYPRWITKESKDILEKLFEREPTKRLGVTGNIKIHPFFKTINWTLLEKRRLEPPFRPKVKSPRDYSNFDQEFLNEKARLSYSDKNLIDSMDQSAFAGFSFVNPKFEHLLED
T5 sequence (P12931 whole entry): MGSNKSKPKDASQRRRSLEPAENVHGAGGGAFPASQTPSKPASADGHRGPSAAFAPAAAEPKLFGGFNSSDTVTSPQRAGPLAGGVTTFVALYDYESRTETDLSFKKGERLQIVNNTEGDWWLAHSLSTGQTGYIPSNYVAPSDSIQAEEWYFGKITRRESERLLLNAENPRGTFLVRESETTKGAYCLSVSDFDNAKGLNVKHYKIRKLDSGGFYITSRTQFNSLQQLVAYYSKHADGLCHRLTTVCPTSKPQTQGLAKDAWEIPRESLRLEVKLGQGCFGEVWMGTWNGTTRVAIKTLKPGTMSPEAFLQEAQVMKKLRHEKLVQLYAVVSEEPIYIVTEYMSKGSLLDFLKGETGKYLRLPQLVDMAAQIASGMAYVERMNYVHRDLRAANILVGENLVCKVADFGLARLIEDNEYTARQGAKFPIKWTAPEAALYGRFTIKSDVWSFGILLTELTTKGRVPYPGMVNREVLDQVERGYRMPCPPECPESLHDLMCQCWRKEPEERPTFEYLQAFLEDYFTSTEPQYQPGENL

SMILES	Percentage inhibition of kinase enzyme activity (BTK)	Percentage inhibition of kinase enzyme activity (FES)	Percentage inhibition of kinase enzyme activity (LTK)	Percentage inhibition of kinase enzyme activity (MER)	Percentage inhibition of kinase enzyme activity (SRC)	Percentage inhibition of kinase enzyme activity (CK1γ1)	Percentage inhibition of kinase enzyme activity (PKACα)	Percentage inhibition of kinase enzyme activity (PKCδ)	Percentage inhibition of kinase enzyme activity (PLK3)	Percentage inhibition of kinase enzyme activity (SPHK1)	Percentage inhibition of kinase enzyme activity (FGFR1)	Percentage inhibition of kinase enzyme activity (YES)	Percentage inhibition of kinase enzyme activity (BMX)	further results
CC#CC(=O)N1CCC[C@H]1c1nc(-c2ccc(C(=O)Nc3ccccn3)cc2)c2c(N)nccn12 [acalabrutinib]	94.95%	-6.35%	10.06%	-3.37%	10.46%	0.33%	-5.14%	-8.64%	1.76%	-3.15%	-2.28%	21.84%	–	–
COc1ccc(F)cc1C(=O)NCc1ccc(-c2nn([C@@H](C)C(F)(F)F)c(N)c2C(N)=O)cc1 [pirtobrutinib]	98.09%	11.87%	-0.40%	-2.75%	4.75%	5.92%	-26.62%	-3.98%	-1.13%	-10.15%	3.30%	72.60%	29.35%	IC50 (BTK; K M,bin ATP): 2.3 nM
C=CC(=O)N1CCC[C@@H](n2nc(-c3ccc(Oc4ccccc4)cc3)c3c(N)ncnc32)C1 [ibrutinib]	–	0.68%	2.76%	–	–	3.68%	-10.78%	0.52%	1.53%	-3.38%	70.87%	–	–	–
O=C(c1ccc(Oc2ccccc2)cc1Cl)c1c[nH]c2ncnc(N[C@@H]3CC[C@@H](CO)OC3)c12 [nemtabrutinib]	97.07%	93.26%	–	29.53%	–	0.57%	0.95%	6.96%	5.13%	-5.57%	46.81%	–	100.05%	IC50 (AN3-CA): 1190 nM; IC50 (AN3-CA; Homo sapiens, AN3-CA, 72 h): 1100 nM; IC50 (RT-4; Homo sapiens, RT-4, 72 h): 1700 nM; IC50 (RT-4): 1700 nM; IC50 (MEK2; 1 mmol/L ATP, read-out: IC50, MEK2): 494 nM; IC50 (MEK2; IC50, MEK2): 9.5 nM; IC50 (B-RAF): 335 nM; IC50 (FGFR1): 134 nM
C=CC(=O)N1CCC([C@@H]2CCNc3c(C(N)=O)c(-c4ccc(Oc5ccccc5)cc4)nn32)CC1 [zanubrutinib]	–	4.53%	55.84%	-2.35%	–	–	–	–	–	–	-5.28%	–	–	–
